The values that follow come from patent US20170065520A1, “STABLE LIPOSOMAL FORMULATIONS OF RAPAMYCIN AND RAPAMYCIN DERIVATIVES FOR TREATING CANCER” (Manli International Ltd, priority 2015, published 2017).

A short description of this data set: In vitro drug release assay (dialysis tube, 50 kDal cut-off). The data set is classed as physicochemical. The conditions noted are these: control formulation (drug in 15% acetonitrile and 85% water), within 48 h. As for the experimental part:
An in vitro drug release assay was used to determine release profiles of umirolimus, sirolimus, and everolimus. Umirolimus-loaded liposomes were prepared as described above in EXAMPLE 1, and sirolimus-loaded and everolimus-loaded liposomes were prepared as described above in EXAMPLE 4.
For each drug, a control formulation was prepared containing 1.0 mg of drug in 5 mL of a solution containing 15% acetonitrile and 85% water. 5 mL of the control formulations and the liposomal formulations for each drug were loaded into separate dialysis tubes having a molecular weight cut-off of 50 kDal.
Each loaded dialysis tube was placed in an individual 50 mL tube containing 40 mL of release media (15% acetonitrile and 0.5% SDS). The release media in each tube was sampled after 1, 2, 5, 7, 24, 30, and 48 h and the drug concentration in the release media was determined by HPLC as described above in EXAMPLE 1. The cumulative drug release percentage versus release time was plotted for all samples. The results are shown in FIGS. 1, 2, and 3 for umirolimus, everolimus, and sirolimus, respectively.

For the substance 40-alkoxyalkyl-rapamycin [umirolimus], the “starting amount of drug diffused out of the dialysis tubing” value turned out to be 67%.
